Measured values: patent publication US12053441B2, “Formulations for improving the delivery of hydrophobic agents” (THE ROYAL INSTITUTION FOR THE ADVANCEMENT OF LEARNING / …, priority 2018, dated 2024)
Starred links: 1 amine or outer side, 2 acyl side, 3 side chain; linkers in the order of their positions; H or OH if unused. Positions of bridges follow the written chain, without caps; N, C: chain ends. Non-standard residues stand in square brackets, D forms with d. Residues, ends and D or L forms follow the SMILES beside them. *: point of attachment. hTyr(3S-OH,4S-OH,3'-OSO3H) = N[C@H](C(=O)O)[C@H](O)[C@@H](O)c1ccc(O)c(OS(=O)(=O)O)c1; pTerphenylCO(4''-OnC5H11) = CCCCCOc1ccc(-c2ccc(-c3ccc(C(=O)*)cc3)cc2)cc1; Orn(4R-OH,5R-OH) = O=C([C@H](C[C@@H](O)[C@@H](O)N[*:3])N[*:1])[*:2]; hTyr(3S-OH,4S-OH) = N[C@H](C(=O)O)[C@H](O)[C@@H](O)c1ccc(O)cc1; Pro(3S-OH,4S-Me) = C[C@H]1CN[C@H](C(=O)O)[C@H]1O; X2 = CCCCCOc1ccc(-c2cc(-c3ccc(C(=O)*)cc3)no2)cc1; Gln(3R-OH) = NC(=O)C[C@@H](O)[C@H](N)C(=O)O; Hyp = O=C(O)[C@@H]1C[C@@H](O)CN1

Tested on: wildtype MEFs
Assay: Cellular UQ10 levels (quinone quantification by HPLC)
Type: cell-based, mouse
Conditions: cells treated with UQ10 or UQ10 combined with McC1 (FIG. 8)
Description: Quantification of quinones. Quinone content was detected and quantified by HPLC as previously described. […] After centrifugation for 5 min at 8,000×g, the hexane layer was collected and evaporated in a vacuum centrifuge. The quinone residue was then dissolved in ethanol and stored at −20° C. until HPLC analysis. The HPLC analysis was performed on a reverse phase C18 column (25.0×0.46 cm, 5 μm, Highchrom) using UV detection at 275 nm (Beckman System Gold). The mobile phase was methanol/ethanol (70:30 v/v) and isocratic elution was used at a flow rate of 1.8 ml/min.

Row | Compound | effect on cellular uptake of UQ10
1 | CCCCCCCC/C=C\CCCCCCCC(=O)ON1C(=O)CC(S(=O)(=O)O)C1=O (centres unmarked) [SSO, sulfo-N-succinimidyl oleate] | inhibits cellular uptake of UQ10

Same assay, conditions: in combination with UQ10, vs UQ10 alone

Row | Compound | cellular uptake of exogenous UQ10
2 | CCCCCOc1ccc(-c2ccc(-c3ccc(C(=O)N[C@H]4C[C@@H](O)[C@@H](O)NC(=O)[C@@H]5[C@@H](O)[C@@H](C)CN5C(=O)[C@H]([C@@H](C)O)NC(=O)[C@H]([C@H](O)[C@@H](O)c5ccc(O)cc5)NC(=O)[C@@H]5C[C@@H](O)CN5C(=O)[C@H]([C@@H](C)O)NC4=O)cc3)cc2)cc1 [AFG, Anidulafungin] ({pTerphenylCO(4''-OnC5H11)}-[Orn(4R-OH,5R-OH)]T[Hyp][hTyr(3S-OH,4S-OH)]T[Pro(3S-OH,4S-Me)]; lactam 1-C) | did not further increase the level of UQ10
3 | CCCCCOc1ccc(-c2cc(-c3ccc(C(=O)N[C@H]4C[C@@H](O)[C@@H](O)NC(=O)[C@@H]5[C@@H](O)[C@@H](C)CN5C(=O)[C@H]([C@H](O)CC(N)=O)NC(=O)[C@H]([C@H](O)[C@@H](O)c5ccc(O)c(OS(=O)(=O)O)c5)NC(=O)[C@@H]5C[C@@H](O)CN5C(=O)[C@H]([C@@H](C)O)NC4=O)cc3)no2)cc1 [MFG, Micafungin] (X2-[Orn(4R-OH,5R-OH)]T[Hyp][hTyr(3S-OH,4S-OH,3'-OSO3H)][Gln(3R-OH)][Pro(3S-OH,4S-Me)]; lactam 1-C) | did not further increase the level of UQ10

Tested on: not given
Assay: not given
Conditions: not given
Description: Solubilization studies. In order to link the surfactant properties of McC1 and its stimulating impact on UQ10 uptake, the solubilization characteristics of McC1 on UQ10 have been determined. First, solubilization test was performed by overnight shaking of a mixture of UQ10 and McC1 in water.
Additional solubilization tests were performed using sonication. Excess amount of UQ10 was mixed with McC1 by sonication for 2 min in water.
Like caspofungin/McC1, surfactin is a cyclic lipopeptide. It is produced from various strains of Bacillus subtilis. Structurally it consists of a peptide chain formed by seven amino acids linked to a β-hydroxyl fatty acid via a lactone bond. It is known for its exceptional surfactant power. […] Then, solubilization test was performed by overnight shaking of a mixture of UQ10 and surfactin in water. The mixture were subjected to brief centrifugation to separate undissolved UQ10 before absorbance of the resultant clear supernatant at 275 nm was measured spectrophotometrically.
Several other surfactants were tested for their ability to solubilize UQ. Briefly, excess amount of UQ10 was mixed with water solution of the tested surfactants using sonication. The resultant suspensions were then filtered through a 0.45 μm syringe filter to remove undissolved UQ10.

Row | Compound | solubilization of UQ10 in water by the compound
4 | lipopeptide detergent-12 [LPD-12] | increases the water solubilization of UQ10
5 | Saponins | improve the water solubility of UQ10

Tested on: Pdss2/Mclk1 DKO cells
Assay: Viability in glucose-free galactose-containing medium (resazurin reduction assay)
Type: cell-based, mouse
Conditions: if provided at a sufficient amount
Description: Tissue culture and viability assays. […] Cell viability was determined by resazurin (Sigma Cat No R7017) reduction assay or crystal violet staining following standard procedures.
The resazurin cell viability assay. Briefly, resazurin was added directly to plates at 1/10 the volume of glucose culture medium. Viable cells with active metabolism can reduce resazurin into resorufin which causes a colour change from blue to pink. After a 2 hr incubation, plates were read on a plate reader (Tecan) to record absorbance at 570 nm and 600 nm. The cell viability was scored as a percentage relative to the signal from untreated glucose-grown wells. Consequently, each screened compound may be described by its effect (no, partial or full rescue) on survival of the KO cells in galactose medium.
(§1) The screen also uses cells lacking UQ biosynthesis (e.g., DKO cells) and its protocol is essentially the same as the galactose-only screen except that in step 2, a minimal amount of UQ10 is added into the galactose screening media at a concentration at which the added UQ10 is insufficient by itself to support survival.

Row | Compound | rescue from galactose-induced cell death by UQ supplementation
6 | COC1=C(OC)C(=O)C(C/C=C(\C)CC/C=C(\C)CC/C=C(\C)CC/C=C(\C)CC/C=C(\C)CC/C=C(\C)CC/C=C(\C)CC/C=C(\C)CCC=C(C)C)=C(C)C1=O [UQ9, ubiquinone-9] | sufficient to rescue them from galactose-induced cell death

Tested on: UQ-deficient cells (Mclk1 KO or DKO cells)
Assay: Screening for compounds that increase survival or respiration of UQ-deficient cells
Type: cell-based, mouse
Conditions: not given
Excerpt: Four different screening methods were developed. The screening methods 1 to 3 are based on rescue-of-lethality in glucose-free galactose-containing media. The presence of galactose instead of glucose forces the cells to rely on oxidative phosphorylation for energy production. Screening method 4 is based on rescue of respiration, implying that processes immediately dependent on UQ have been rescued. Libraries of small molecules were screened for compounds and/or agents that increase survival of UQ-deficient cells (e.g., Mclk1 KO or DKO cells) in standard or modified galactose media depending on the screen settings.
The screen uses cells lacking UQ (e.g., Mclk1 KO cells) and consists of three key steps: • 1) Day 0: preparation of Mclk1 KO cells in 96-well plates in standard (glucose-containing) culture medium. • 2) Day 1: changing to glucose-free galactose-containing medium and adding compounds to be screened at a concentration of approximately 10 μM. • 3) Day 4 to 6: following 3 to 5 days of incubation with the compound to be screened, media were removed and cell viability was assayed by resazurin reduction assay.
as §1
The screen uses Mclk1 SKO cells and its protocol is essentially the same as the galactose-only screen except that in step 2, the screening medium is added with 2,4-DHB at a concentration that allows the KO cells to restore some UQ biosynthetic ability but not sufficiently to allow for a level of UQ production that is sufficient for respiration-dependent growth. Thus, under these conditions a compound that can boost the overall level of UQ biosynthesis might allow the cells to make enough UQ to survive in a respiration-dependent medium. Such a screen can identify compounds that boost UQ biosynthesis at any level, including at the level of gene expression.
This screening approach aims to directly identify compounds that can boost mitochondrial respiratory chain activity in respiration-deficient cells. […] For this, cells were seeded into XF24 V7 culture plates and treated with testing compounds for 1 to 2 days before a treatment effect on cellular respiration is measured using the Seahorse XF-24e Flux Analyzer. The XF assay was the same as above described except galactose (10 mM) rather glucose was used as the sugar source to increase respiration rate and thus assay sensitivity.

Row | Compound | identified by the screening methods as useful for UQ deficiency
7 | CCOC(=O)O[C@]1(C(=O)OCCl)CC[C@H]2[C@@H]3CCC4=CC(=O)C=C[C@]4(C)[C@H]3[C@@H](O)C[C@@]21C [ioteprednol etabonate] | identified
8 | C[C@]12C=CC(=O)C=C1CC[C@@H]1[C@@H]2[C@@H](O)C[C@@]2(C)[C@H]1CC[C@]2(O)C(=O)CO [prednisolone] | identified
9 | CC(=O)O[C@]1(C(C)=O)CC[C@H]2[C@@H]3C[C@H](C)C4=CC(=O)C=C[C@]4(C)[C@@]3(F)[C@@H](O)C[C@@]21C [fluorometholone acetate] | identified
10 | CNC1CCCN(c2c(F)cc3c(=O)c(C(=O)O)cn(C4CC4)c3c2OC)C1 (centres unmarked) [balofloxacin] | identified
11 | C[C@]12C=CC(=O)C=C1CC[C@H]1[C@@H]3C[C@@H](O)[C@](O)(C(=O)CO)[C@@]3(C)C[C@H](O)[C@@]12F [triamcinolone] | identified
12 | Nc1cc(C(F)(F)F)c(-c2cc(N3CCOCC3)nc(N3CCOCC3)n2)cn1 [BKM120, buparlisib] | identified
13 | Caspofungin acetate | identified
14 | CC(C)n1nc(-c2cc3cc(O)ccc3[nH]2)c2c(N)ncnc21 [PP242] | identified

Same assay, conditions: DKO cells, minimal UQ10 added

Row | Compound | hit in the UQ supplementation screen (method 2)
15 | Caspofungin acetate | one of the hits

Tested on: not listed separately
Assay: Drop collapse assay (surfactant activity)
Type: physicochemical
Conditions: not given
Description: Drop collapse assay is a simple detection method of surface active agents. It relies on the capacity of surfactants to destabilize the liquid droplets on an oily surface. The drop-collapsing ability of McC1 along with other known potent surfactants was characterized. For each, 40 ul of compound solution in water was pipetted onto a hydrophobic Parafilm surface and the diameter of the drops was measured 1 min later using a ruler.

Row | Compound | surfactant (drop collapse) activity
16 | CCCCCOc1ccc(-c2ccc(-c3ccc(C(=O)N[C@H]4C[C@@H](O)[C@@H](O)NC(=O)[C@@H]5[C@@H](O)[C@@H](C)CN5C(=O)[C@H]([C@@H](C)O)NC(=O)[C@H]([C@H](O)[C@@H](O)c5ccc(O)cc5)NC(=O)[C@@H]5C[C@@H](O)CN5C(=O)[C@H]([C@@H](C)O)NC4=O)cc3)cc2)cc1 [AFG, Anidulafungin] ({pTerphenylCO(4''-OnC5H11)}-[Orn(4R-OH,5R-OH)]T[Hyp][hTyr(3S-OH,4S-OH)]T[Pro(3S-OH,4S-Me)]; lactam 1-C) | no drop collapse activity
17 | CCCCCOc1ccc(-c2cc(-c3ccc(C(=O)N[C@H]4C[C@@H](O)[C@@H](O)NC(=O)[C@@H]5[C@@H](O)[C@@H](C)CN5C(=O)[C@H]([C@H](O)CC(N)=O)NC(=O)[C@H]([C@H](O)[C@@H](O)c5ccc(O)c(OS(=O)(=O)O)c5)NC(=O)[C@@H]5C[C@@H](O)CN5C(=O)[C@H]([C@@H](C)O)NC4=O)cc3)no2)cc1 [MFG, Micafungin] (X2-[Orn(4R-OH,5R-OH)]T[Hyp][hTyr(3S-OH,4S-OH,3'-OSO3H)][Gln(3R-OH)][Pro(3S-OH,4S-Me)]; lactam 1-C) | no drop collapse activity
